Test results from publication PMC11364775, “Ion occupancy of the selectivity filter controls opening of a cytoplasmic gate in the K2P channel TALK-2” (Nature Communications, 2024).
Like-named read-outs stand apart in the source and are kept apart here.

Assays:
[1] = molecular target: T1, WT TALK-2 channels (human K2P17.1) (Homo sapiens, UniProt Q96T54); assay: Inside-out patch-clamp, ligand activation of channel currents at +40 mV (oocytes)
T1 sequence (Q96T54 1-332): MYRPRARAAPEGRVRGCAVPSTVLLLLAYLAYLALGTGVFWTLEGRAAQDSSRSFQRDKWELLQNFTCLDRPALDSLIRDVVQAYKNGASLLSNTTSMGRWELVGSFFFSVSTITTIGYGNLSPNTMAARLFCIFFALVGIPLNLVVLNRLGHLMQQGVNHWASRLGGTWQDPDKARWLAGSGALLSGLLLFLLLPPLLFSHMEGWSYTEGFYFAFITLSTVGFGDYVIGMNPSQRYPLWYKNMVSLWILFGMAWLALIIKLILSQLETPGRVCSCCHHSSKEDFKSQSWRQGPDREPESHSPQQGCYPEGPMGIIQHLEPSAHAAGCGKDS
Description: Oocytes were surgically removed from anesthetized adult females, treated with type II collagenase (Sigma-Aldrich/Merck, Germany) and manually defolliculated. 50 nl of a solution containing the K^+ channel specific cRNA was injected into Dumont stage V - VI oocytes and subsequently incubated at 17 °C in a solution containing (mM): 54 NaCl, 30 KCl, 2.4 NaHCO3, 0.82 MgSO4 x 7 H2O, 0.41 CaCl2, 0.33 Ca(NO3)2 x 4 H2O and 7.5 TRIS (pH 7.4 adjusted with NaOH/HCl) for 1–7 days before use. Electrophysiological recordings: Excised patch measurements in inside-out configuration under voltage-clamp conditions were performed at room temperature (22 – 24 °C). […] Intracellular bath solutions and compounds were applied to the cytoplasmic side of excised patches for the various K^+ channels via a gravity flow multi-barrel pipette system. Intracellular solution had the following composition (in mM): 120 KCl, 10 HEPES, 2 EGTA and 1 Pyrophosphate (pH adjusted with KOH/HCl). In other intracellular bath solutions, K^+ was replaced by Rb^+ (pH 7.4 adjusted with RbOH/HCl). Currents were recorded with an EPC10 amplifier (HEKA electronics, Germany) and sampled at 10 kHz or higher and filtered with 3 kHz (-3 dB) or higher as appropriate for sampling rate.
Recorded currents were analyzed from stable membrane patches at a voltage defined in the respective figure legend or with a voltage protocol as indicated in the respective figure. The fold activation (fold change in (tail) current amplitude) of a ligand (drug or bioactive lipid) was calculated from Eq. 1:1 Fold activationFA=Iactivated/Ibasal where Iactivated represents the stable current level in the presence of a given concentration of a respective ligand and Ibasal the measured current before ligand application. Percentage inhibition or residual currents upon blocker application for a ligand (drug or bioactive lipid) was calculated from stable currents of excised membrane patches using the following Eqs. 2 and 3:2 %inhibition=1−Iinhibited/Ibasal*100 3 Residual current=100−%inhibition where Iinhibited refers to the stable current level recorded in the presence of a given concentration of a drug or bioactive lipid and Ibasal to the measured current before ligand application. The macroscopic half-maximal concentration-inhibition relationship of a ligand was obtained using a Hill-fit for dose-response curves as depicted in Eq. 4:4 %inhibition/activation=Ibase+Imax−Ibase/1+x1/2/x^rate where base and max are the currents in the absence and presence of a respective ligand, x is the concentration of the ligand, x1/2 is the ligand concentration at which the activatory or inhibitory effect is half-maximal, rate is the Hill coefficient.

WT TREK-1 channels = WT TREK-1 channels (Rattus norvegicus, UniProt Q920B6); settings: TREK-1 WT
WT TREK-1 channels, sequence (Q920B6 whole entry): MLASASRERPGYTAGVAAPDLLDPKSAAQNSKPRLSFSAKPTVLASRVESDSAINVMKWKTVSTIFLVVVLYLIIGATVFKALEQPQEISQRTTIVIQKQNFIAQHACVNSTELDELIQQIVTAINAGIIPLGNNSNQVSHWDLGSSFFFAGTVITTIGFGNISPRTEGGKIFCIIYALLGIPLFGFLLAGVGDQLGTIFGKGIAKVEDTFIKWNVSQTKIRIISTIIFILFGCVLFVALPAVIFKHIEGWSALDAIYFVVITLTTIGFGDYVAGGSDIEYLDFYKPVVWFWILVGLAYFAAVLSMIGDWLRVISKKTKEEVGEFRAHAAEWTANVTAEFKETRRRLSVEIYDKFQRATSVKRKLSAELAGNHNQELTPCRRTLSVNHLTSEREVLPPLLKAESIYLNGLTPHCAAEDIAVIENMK
Description: Data shown are the mean ± s.e.m and the number (n) of repeats of the representative measurements with similar results is indicated in the figure.
Oocytes were surgically removed from anesthetized adult females, treated with type II collagenase (Sigma-Aldrich/Merck, Germany) and manually defolliculated. 50 nl of a solution containing the K^+ channel specific cRNA was injected into Dumont stage V - VI oocytes and subsequently incubated at 17 °C in a solution containing (mM): 54 NaCl, 30 KCl, 2.4 NaHCO3, 0.82 MgSO4 x 7 H2O, 0.41 CaCl2, 0.33 Ca(NO3)2 x 4 H2O and 7.5 TRIS (pH 7.4 adjusted with NaOH/HCl) for 1–7 days before use. Electrophysiological recordings: Excised patch measurements in inside-out configuration under voltage-clamp conditions were performed at room temperature (22 – 24 °C). Patch pipettes were made from thick-walled borosilicate glass GB 200TF-8P (Science Products, Germany), had resistances of 0.2–0.5 MΩ (tip diameter of 10 - 25 µm) and filled with a pipette solution (in mM): 120 KCl, 10 HEPES and 3.6 CaCl2 (pH 7.0 - 8.5 adjusted with KOH/HCl) or 120 KCl, 10 AMPSO and 3.6 CaCl2 (pH 9.0 - 10.5 adjusted with KOH/HCl). Intracellular bath solutions and compounds were applied to the cytoplasmic side of excised patches for the various K^+ channels via a gravity flow multi-barrel pipette system. Intracellular solution had the following composition (in mM): 120 KCl, 10 HEPES, 2 EGTA and 1 Pyrophosphate (pH adjusted with KOH/HCl). In other intracellular bath solutions, K^+ was replaced by Rb^+ (pH 7.4 adjusted with RbOH/HCl). Currents were recorded with an EPC10 amplifier (HEKA electronics, Germany) and sampled at 10 kHz or higher and filtered with 3 kHz (-3 dB) or higher as appropriate for sampling rate.

WT TALK-2 channels = molecular target: T2, WT TALK-2 channels (Homo sapiens, UniProt Q96T54); assay: Conductance-voltage (G-V) curves from tail currents, V1/2 (intracellular Rb+); type: cell-based; design: expressed in transfected cells; host or cells: Xenopus laevis oocytes (cRNA injection), excised inside-out patches; settings: for Normalized current: TALK-2 WT + 1 mM 2-APB
T2 sequence (Q96T54 1-332): T1 sequence (Q96T54 1-332)
Excerpt: The voltage-dependent activation mechanism of the SF gate in K2P channels allows to estimate the electrical work (ΔG = zFΔV1/2) required for pore opening by fitting the G–V curve to a Boltzmann equation. […] The open state represents the situation of both gates being simultaneously open but voltage can only exert force on the SF gate that functions as voltage sensor. […] We further tested whether mutations that open the lower gate (L262A and L264A) would affect the extracellular pH sensitivity. […] We further explored this concept of allosteric coupling using the mutations identified in the functional alanine screen of TM2 and TM4. […]
Conductance-voltage (G–V) relationships were determined from tail currents recorded at a holding potential (VH) of −80 mV after 300 ms depolarizing steps as indicated in the respective figure legend. Data were analyzed with a single Boltzmann fit following Eq. 6:6 GV=Imax/1+e^V−V1/2/slope+Ibase where V1/2 represents the voltage of half-maximal activation, s is the slope factor and Imax and Ibase represent the upper and lower asymptotes. Under appropriate experimental conditions, you can use slope to calculate the valence (charge) of the ion moving across the channel. Slope equals R * T/ z * F where R is the universal gas constant, T is temperature in K, F is the Faraday constant, and z is the valence.

NCCOB(c1ccccc1)c1ccccc1 [2-APB, 2-aminoethoxydiphenyl borate]
EC50 [1]: 421 ± 34 µM | Fold activation 1 mM 2-APB ([1]; 1 mM, TALK-2 WT): 26.51 fold | Normalized currents ([1]; TALK-2 WT, 0.1 µM 2-APB): 0.04 | Normalized currents ([1]; TALK-2 WT, 1 µM 2-APB): 0.04 | Normalized currents ([1]; TALK-2 WT, 10 µM 2-APB): 0.05 | Normalized currents ([1]; TALK-2 WT, 100 µM 2-APB): 0.19 | Normalized currents ([1]; TALK-2 WT, 500 µM 2-APB): 0.58 | Normalized currents ([1]; TALK-2 WT, 1000 µM 2-APB): 0.87 | Normalized currents ([1]; TALK-2 WT, 2000 µM 2-APB): 1.00 | Rb+-induced current (WT TREK-1 channels; 0.001 mM 2-APB): 2.62 nA | Rb+-induced current (WT TREK-1 channels; 0.01 mM 2-APB): 2.54 nA | Rb+-induced current (WT TREK-1 channels; 0.1 mM 2-APB): 1.29 nA | Rb+-induced current (WT TREK-1 channels; 0.5 mM 2-APB): -0.03 nA | Rb+-induced current (WT TREK-1 channels; 1.0 mM 2-APB): -0.44 nA | Rb+-induced current (WT TREK-1 channels; 2.0 mM 2-APB): 0.00 nA | V1/2 shift (mV) (WT TALK-2 channels; 1 mM 2-APB, shift of G-V curve): 26.9 mV | Normalized current (WT TALK-2 channels; Voltage 0.000): 0.204 | Normalized current (WT TALK-2 channels; Voltage 0.005): 0.227 | Normalized current (WT TALK-2 channels; Voltage 0.010): 0.255 | Normalized current (WT TALK-2 channels; Voltage 0.015): 0.290 | Normalized current (WT TALK-2 channels; Voltage 0.020): 0.331 | Normalized current (WT TALK-2 channels; Voltage 0.025): 0.376 | Normalized current (WT TALK-2 channels; Voltage 0.030): 0.427 | Normalized current (WT TALK-2 channels; Voltage 0.035): 0.474 | Normalized current (WT TALK-2 channels; Voltage 0.040): 0.520 | Normalized current (WT TALK-2 channels; Voltage 0.045): 0.565 | Normalized current (WT TALK-2 channels; Voltage 0.050): 0.611 | Normalized current (WT TALK-2 channels; Voltage 0.055): 0.652 | Normalized current (WT TALK-2 channels; Voltage 0.060): 0.689 | Normalized current (WT TALK-2 channels; Voltage 0.065): 0.723 | Normalized current (WT TALK-2 channels; Voltage 0.070): 0.754 | Normalized current (WT TALK-2 channels; Voltage 0.075): 0.784 | Normalized current (WT TALK-2 channels; Voltage 0.080): 0.809 | Normalized current (WT TALK-2 channels; Voltage 0.085): 0.834 | Normalized current (WT TALK-2 channels; Voltage 0.090): 0.854 | Normalized current (WT TALK-2 channels; Voltage 0.095): 0.872 | Normalized current (WT TALK-2 channels; Voltage 0.100): 0.891 | Normalized current (WT TALK-2 channels; Voltage 0.105): 0.905 | Normalized current (WT TALK-2 channels; Voltage 0.110): 0.919 | Normalized current (WT TALK-2 channels; Voltage 0.115): 0.931 | Normalized current (WT TALK-2 channels; Voltage 0.120): 0.943 | Normalized current (WT TALK-2 channels; Voltage 0.125): 0.952 | Normalized current (WT TALK-2 channels; Voltage 0.130): 0.961 | Normalized current (WT TALK-2 channels; Voltage 0.135): 0.972 | Normalized current (WT TALK-2 channels; Voltage 0.140): 0.971 | Normalized current (WT TALK-2 channels; Voltage 0.145): 0.979 | Normalized current (WT TALK-2 channels; Voltage 0.150): 0.985 | Normalized current (WT TALK-2 channels; Voltage 0.155): 0.989 | Normalized current (WT TALK-2 channels; Voltage 0.160): 0.992 | Normalized current (WT TALK-2 channels; Voltage -0.005): 0.187 | Normalized current (WT TALK-2 channels; Voltage -0.010): 0.175 | Normalized current (WT TALK-2 channels; Voltage -0.015): 0.167 | Normalized current (WT TALK-2 channels; Voltage -0.020): 0.158 | Normalized current (WT TALK-2 channels; Voltage -0.025): 0.153 | Normalized current (WT TALK-2 channels; Voltage -0.030): 0.148 | Normalized current (WT TALK-2 channels; Voltage -0.035): 0.143 | Normalized current (WT TALK-2 channels; Voltage -0.040): 0.140 | Normalized current (WT TALK-2 channels; Voltage -0.045): 0.136 | Normalized current (WT TALK-2 channels; Voltage -0.050): 0.131 | Normalized current (WT TALK-2 channels; Voltage -0.055): 0.128 | Normalized current (WT TALK-2 channels; Voltage -0.060): 0.125 | Normalized current (WT TALK-2 channels; Voltage -0.065): 0.121 | Normalized current (WT TALK-2 channels; Voltage -0.070): 0.118 | Normalized current (WT TALK-2 channels; Voltage -0.075): 0.115 | Normalized current (WT TALK-2 channels; Voltage -0.080): 0.114 | Normalized current (WT TALK-2 channels; Voltage -0.085): 0.112 | Normalized current (WT TALK-2 channels; Voltage -0.090): 0.113 | Normalized current (WT TALK-2 channels; Voltage -0.095): 0.112 | Normalized current (WT TALK-2 channels; Voltage -0.100): 0.112 | Normalized current (WT TALK-2 channels; Voltage -0.105): 0.111 | Normalized current (WT TALK-2 channels; Voltage -0.110): 0.110 | Normalized current (WT TALK-2 channels; Voltage -0.115): 0.110 | Normalized current (WT TALK-2 channels; Voltage -0.120): 0.111 | V1/2 (WT TALK-2 channels; TALK-2 WT, 1 mM ligand): 44.7 mV
